The target of series [1] is T1, Placenta growth factor (Mus musculus, UniProt P49764).
T1 sequence (P49764 whole entry): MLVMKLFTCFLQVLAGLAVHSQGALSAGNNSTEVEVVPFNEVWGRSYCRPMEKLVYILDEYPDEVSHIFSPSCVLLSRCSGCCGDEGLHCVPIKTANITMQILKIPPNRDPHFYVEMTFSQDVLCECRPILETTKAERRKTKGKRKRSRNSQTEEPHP
As to the kind of experiment: Inhibition of mouse PlGF-VEGFR-1 interaction by ELISA. (An ELISA detects its analyte on a solid surface through an enzyme-linked reagent.)

Series [2] in a line: Stability in Swiss Webster mouse serum assessed as functional compound remaining after 6 hrs. In kind it is ADME, cell-free. Conditions: read-out: Stability.
For series [3], the target named is T2, Placenta growth factor (Homo sapiens, UniProt P49763).
T2 sequence (P49763 whole entry): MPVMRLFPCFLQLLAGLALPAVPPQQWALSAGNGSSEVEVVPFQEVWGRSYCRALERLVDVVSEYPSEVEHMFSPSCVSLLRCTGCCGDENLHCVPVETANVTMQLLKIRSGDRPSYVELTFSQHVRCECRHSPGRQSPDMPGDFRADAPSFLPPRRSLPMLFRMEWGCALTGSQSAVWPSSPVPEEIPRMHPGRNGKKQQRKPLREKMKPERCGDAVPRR
In words: Binding affinity to human PlGF-1. Conditions: read-out: Kd.

Series [4] has as its target T2, Placenta growth factor. In words: Inhibition of human PlGF-1-VEGFR-1 interaction by ELISA.
Series [5] can be described thus: Terminal half life in Swiss Webster mouse at 10 mg/kg, iv. In kind it is ADME, organism-based. Conditions: in vivo, read-out: beta t1/2 (converted). Details: dose 10 mg/kg, route intravenous.
The target in series [6] is T3, Placenta growth factor (Homo sapiens) (UniProt P49763).
T3 sequence (whole entry): T2 sequence (P49763 whole entry)
As to the kind of experiment: Binding affinity to human PlGF-1 by surface plasmon resonance study.

The target in series [7] is T3, Placenta growth factor (Homo sapiens). As to the kind of experiment: Binding affinity to human PlGF-2 by surface plasmon resonance study.

Activity calls are given as the source filed them. The calls are words filed in the database; no cut-off is given here. Bridge positions count the residues as written; N and C are the ends. Square brackets hold non-standard residues; d marks the D form. Peptide text beside a SMILES is read from it. * marks the point of attachment. X1 = O=C(COCC(=O)*)Nc1ccc(CCC(=O)N2CCC2=O)cc1; NMeE = CN[C@@H](CCC(=O)O)C(=O)O Some results are limits rather than exact numbers.

Take `CSCC[C@H](NC(=O)[C@@H](NC(=O)[C@H](CCCCNC(C)=O)NC(=O)[C@@H]1CSSC[C@H](NC(=O)[C@@H](NC(=O)[C@H](CC(=O)O)NC(=O)[C@H](Cc2ccccc2)NC(C)=O)C(C)C)C(=O)N[C@@H](CC(N)=O)C(=O)N[C@@H](Cc2c[nH]c3ccccc23)C(=O)N[C@@H](C(C)C)C(=O)N[C@@H](CCCCNC(=O)COCC(=O)Nc2ccc(CCC(=O)N3CCC3=O)cc2)C(=O)N[C@@H](CC(C)C)C(=O)N2CCC[C@H]2C(=O)N[C@@H](Cc2cnc[nH]2)C(=O)N1)C(C)C)C(N)=O` (Ac-FDVCNWVK(X1)LPHCK(Ac)VM-NH2; disulfide 4-12): at Placenta growth factor [1], inhibition was half-maximal at 4 nM (IC50). The remaining at 6 h in series [2] turned out to be 20%. For the same compound, the Kd (in general, the constant that tells how readily two partners part at equilibrium) at Placenta growth factor [3] came to 9 nM.

For `CC[C@H](C)[C@@H]1NC(=O)[C@H](Cc2ccc(O)cc2)NC(=O)[C@H](Cc2cnc[nH]2)NC(=O)[C@@H](NC(=O)[C@@H](NC(=O)[C@H](CCC(=O)O)NC(=O)[C@H](Cc2ccccc2)NC(C)=O)C(C)C)CSSC[C@@H](C(=O)N[C@H](C(=O)N[C@@H](CCCN=C(N)N)C(=O)N[C@@H](Cc2ccc(O)cc2)C(N)=O)[C@@H](C)O)NC(=O)[C@H](Cc2cnc[nH]2)NC(=O)[C@@H]2CCCN2C(=O)[C@H](CC(C)C)NC(=O)[C@H](CCCCNC(=O)COCC(=O)Nc2ccc(CCC(=O)N3CCC3=O)cc2)NC1=O`, the IC50 (commonly the concentration needed to halve the response being measured) at Placenta growth factor [1] turned out to be 0.7 nM. In addition, the remaining at 6 h in series [2] was 4%. On Placenta growth factor [3], the Kd is 0.3 nM.

At Placenta growth factor [4], `CC[C@H](C)[C@@H]1NC(=O)[C@H](Cc2ccc(O)cc2)NC(=O)[C@H](Cc2cnc[nH]2)NC(=O)[C@@H](NC(=O)[C@@H](NC(=O)[C@H](CCC(=O)O)NC(=O)[C@H](Cc2ccccc2)NC(=O)[C@H](C)NC(=O)[C@H](C)NC(=O)[C@H](CC(=O)O)NC(C)=O)C(C)C)CSSC[C@@H](C(=O)N[C@H](C(=O)N[C@@H](CCCN=C(N)N)C(=O)N[C@@H](Cc2ccc(O)cc2)C(N)=O)[C@@H](C)O)NC(=O)[C@H](Cc2cnc[nH]2)NC(=O)[C@@H]2CCCN2C(=O)[C@H](CC(C)C)NC(=O)[C@H](CCCCNC(=O)COCC(=O)Nc2ccc(CCC(=O)N3CCC3=O)cc2)NC1=O` (Ac-DAAFEVCHYIK(X1)LPHCTRY-NH2; disulfide 7-15) registered an IC50 of 1 nM. Moreover, the half-life in series [5] is 14 h. Further, the Kd at Placenta growth factor [3] was 0.3 nM.

Consider `CC[C@H](C)[C@@H]1NC(=O)[C@H](Cc2ccc(O)cc2)NC(=O)[C@H](Cc2cnc[nH]2)NC(=O)[C@@H](NC(=O)[C@@H](NC(=O)[C@H](CCC(=O)O)N(C)C(=O)[C@H](Cc2ccccc2)NC(=O)[C@H](C)NC(=O)[C@H](C)NC(=O)[C@H](CC(=O)O)NC(=O)[C@H](C)NC(C)=O)C(C)C)CSSC[C@@H](C(=O)N[C@H](C(=O)N[C@@H](CCCNC(=N)N)C(=O)N[C@@H](Cc2ccc(O)cc2)C(N)=O)[C@@H](C)O)NC(=O)[C@H](Cc2cnc[nH]2)NC(=O)[C@@H]2CCCN2C(=O)[C@H](CC(C)C)NC(=O)[C@H](CCCCNC(=O)COCC(=O)Nc2ccc(CCC(=O)N3CCC3=O)cc2)NC1=O` (Ac-ADAAF[NMeE]VCHYIK(X1)LPHCTRY-NH2; disulfide 8-16), for which inhibition at Placenta growth factor [4] was half-maximal at 3 nM (IC50). Moreover, the half-life in series [5] is 24 h. The Kd at Placenta growth factor [3] came out at 8 nM.

For the compound `CSCC[C@H](NC(=O)[C@H](CCCCNC(=O)COCC(=O)Nc1ccc(CCC(=O)N2CCC2=O)cc1)NC(=O)[C@H](CCCCNC(C)=O)NC(=O)[C@@H]1CSSC[C@H](NC(=O)[C@@H](NC(=O)[C@H](CC(=O)O)NC(=O)[C@H](Cc2ccccc2)NC(C)=O)C(C)C)C(=O)N[C@@H](CC(N)=O)C(=O)N[C@@H](Cc2c[nH]c3ccccc23)C(=O)N[C@@H](C(C)C)C(=O)N[C@@H]([C@@H](C)O)C(=O)N[C@@H](CC(C)C)C(=O)N2CCC[C@H]2C(=O)N[C@@H](Cc2cnc[nH]2)C(=O)N1)C(N)=O` (Ac-FDVCNWVTLPHCK(Ac)K(X1)M-NH2; disulfide 4-12), the IC50 against Placenta growth factor [4] and against Placenta growth factor [1] was 4 nM in each case. Moreover, the outcome in series [6] and in series [7] was Active. In addition, the remaining at 6 h in series [2] is less than 5%. For the same compound, the Kd on Placenta growth factor [3] was 5 nM.
